Assay results from paper PMC5874716, “Antimicrobial Peptides for Topical Treatment of Osteomyelitis and Implant-Related Infections: Study in the Spongy Bone” (Pharmaceuticals, 2018).
Counter-ions that a name gives are not always drawn. Non-standard residues stand in square brackets, D forms with d. Residues, ends and D or L forms follow the SMILES beside them. βAla = NCCC(=O)O

Columns and labels:
[1] = system: C. tropicalis ATCC 750; assay: Biofilm formation on bone cement (Palacos r) model implants in infected femur head; set-up: species or system Candida tropicalis; settings: cements implanted inside infected holes; 2 days; single experiment, / = two implants
Text: (§1) The poly(methyl methacrylate)-based bone cement with or without AMPs was implanted either inside infected holes or inside non-infected holes. In the latter case, the microbes infiltrated towards the implant from a hole made between them at roughly equal distance from each (Figure 3). This would simulate the authentic situation in which the pathogens can infect an orthopaedic implant by spreading through the bloodstream or contiguously from areas of infection. We evaluated the experiments on the basis of the amounts of microbes released from the biofilms supposedly formed on the surfaces of the implants that were removed from the infected bone samples.
(§2) The bone samples with bored holes inside were prepared and handled as above. The bone cement (Palacos®r, Hereaus Medical GmbH, Wehrheim, Germany) with AMP incorporated was prepared by swift and thorough mixing of the polymer powder component (poly-methylacrylate, methyl methacrylate, 125 mg) and AMP (10 mg) or antibiotic (10 mg) with the liquid monomer (methyl methacrylate, N,N-dimethyl-p-toluidine, hydroquinone and colorant E141, 70 μL). The resulting elastic paste was pressed using a 2 mL plastic syringe into two bored holes, where it polymerized and solidified. The paste without peptide for filling of the remaining two holes was prepared similarly by mixing the powder component (125 mg) and liquid component (68 μL). […]

[2] = system: MRSA clinical isolate from University Hospital in Motol (MRSA (M)); assay: as above; set-up: species or system Staphylococcus aureus; settings: cements implanted inside infected holes; Palacos r with peptide or antibiotic; 2 days; single experiment, / = two implants
Text: as §1, §2

[3] = system: E. faecalis; assay: as above; set-up: species or system Enterococcus faecalis; settings: cements implanted inside infected holes; 2 days; single experiment
Text: as §1, §2

[4] = system: S. epidermidis clinical isolate (Motol); assay: microbe, parasite or virus in culture; format: cell-based
Experimental: (§3) Femur heads (ca. 70 pieces) taken from patients during hip replacement surgery were periodically purchased in the period between 2014–2017 as discarded from the bone tissue bank at University Hospital in Motol, Prague, Czech Republic. The reason for the replacements by artificial prosthesis was the worn out cartilage on the surface of their heads. Bone samples were stored at −80 °C under standard conditions of certified tissue banks. In the laboratory, they were kept at +5 °C overnight and then at room temperature for several hours before they could be used for the experiments. The experiments with this material were approved by the Ethics Committee for Multi-Centric Clinical Trials of the University Hospital Motol, Reference No: EK-655/15. Methicillin-resistant S. aureus (MRSA 6271) ATCC 43300 and P. aeruginosa (5482) ATCC 27853 were purchased from the Czech National Collection of Type Cultures, National Institute of Public Health, Prague, Czech Republic. Methicillin-resistant S. aureus (MRSA (L)) and P. aeruginosa (L) were obtained as multi-resistant clinical isolates from Liberec Regional Hospital, Liberec, Czech Republic. Methicillin-resistant S. aureus (MRSA (M)), E. faecalis and S. epidermidis were obtained as clinical isolates from University Hospital in Motol, Prague. Candida albicans (F7-39/IDE99) came from the mycological collection of the Faculty of Medicine, Palacky University, Olomouc, Czech Republic. C. albicans ATCC MYA-2876, C. tropicalis ATCC 750 and C. glabrata DSY565 were kindly provided by Dr. Hana Sychrová from the Institute of Physiology, Academy of Sciences of the Czech Republic, Prague. Vancomycin hydrochloride, gentamicin sulfate, ceftriaxone disodium salt, amphotericin B, fluconazole, and clotrimazole were obtained from Sigma-Aldrich, Prague, Czech Republic.
(§4) MIC values for peptides were established by observing growth of treated bacteria in HONEYCOMB 100-well microtiter plates (Helsinki, Finland) using a Bioscreen C instrument (Oy Growth Curves, Helsinki, Finland) as previously described. Haemolytic activity of peptides expressed as the concentration of a peptide required for lysis of 50% of human erythrocytes in the assay (LC50) was measured using a Tecan infinite M200 PRO reader (Tecan Austria GmbH, Grödig, Austria). Blood samples for determining haemolytic activity were obtained from healthy volunteers.

[5] = system: MRSA clinical isolate from University Hospital in Motol (MRSA (M)); assay: microbe, parasite or virus in culture; format: cell-based
Experimental: as §3, §4

[6] = system: P. aeruginosa (5482) ATCC 27853; assay: microbe, parasite or virus in culture; format: cell-based
Experimental: as §3, §4

[7] = system: MRSA 6271 (ATCC 43300); assay: microbe, parasite or virus in culture; format: cell-based
Experimental: as §3, §4

[8] = system: P. aeruginosa clinical isolate from Liberec Regional Hospital; assay: microbe, parasite or virus in culture; format: cell-based
Experimental: as §3, §4

[9] = system: E. faecalis clinical isolate (Motol); assay: microbe, parasite or virus in culture; format: cell-based
Experimental: as §3, §4

[10] = system: MRSA clinical isolate from Liberec Regional Hospital (MRSA (L)); assay: microbe, parasite or virus in culture; format: cell-based
Experimental: as §3, §4

[11] = system: Candida albicans; format: cell-based; settings: Bioscreen C; at least three times in duplicates
Experimental: as §3, §4

[12] = system: human erythrocytes; assay: Haemolysis assay; format: cell-based; settings: concentration causing lysis of 50% of human red blood cells; at least three times in duplicates
Experimental: as §4

[13] = system: P. aeruginosa 5482; assay: Experimental model of bone infection (human femur head, ChronOS Inject carrier); set-up: species or system Pseudomonas aeruginosa; settings: ChronOS Inject 200 mg blended with 10 mg peptide; 2 days at room temperature; single experiment on one femoral head
Experimental: We usually drilled three to four holes into the spongy part of each bone sample (as space allowed) and then filled the holes with the suspension of microbes (Figure 1a). The next day, the foci of the infection set up in the holes were treated (i) with carrier alone as a control, (ii) with carrier blended with AMP, or (iii) in some cases with a carrier blended with an antibiotic for comparison (Figure 1b). The results of infection eradication were evaluated after two days by counting the bacterial colonies (Figures S1–S3 as illustrative examples) found in the swab taken from each hole after the fillings were removed (Figure 1c).
Three to four holes ca 4 mm in diameter and 8 mm deep were drilled using a surgical spoon at the side of the resection into the spongy part of the femur head. This bone was placed into a beaker cushioned with sterile gauze, which was then drenched with sterile physiological solution. The suspension of selected bacteria (S. aureus, S. epidermidis, P. aeruginosa) in the concentration of 10^9 colony forming units (CFU)/mL in Luria Bertani (LB) medium and E. faecalis in brain-heart infusion (BHI) medium was consecutively infused into each hole in the bone while taking care not to overfill the holes (Figure 1a). […] Following overnight incubation, the numbers of bacterial colonies were counted. The bacterial load was expressed as CFU per hole. […]

[14] = clinical isolate Motol, Bioscreen C, at least three times in duplicates
[15] = clinical isolate Liberec, Bioscreen C, at least three times in duplicates

## C[C@@H]1[C@H](O)[C@@H](C)/C=C/C=C/C=C/C=C/C=C/C=C/C=C/[C@H](O[C@@H]2O[C@H](C)[C@@H](O)[C@H](N)[C@@H]2O)C[C@@H]2O[C@](O)(C[C@@H](O)C[C@@H](O)[C@H](O)CC[C@@H](O)C[C@@H](O)CC(=O)O[C@H]1C)C[C@H](O)[C@H]2C(=O)O [Amphotericin B, amphotericin B]
[1]
  CFU/Implant, * C. tropicalis: 1.3 × 10^6 CFU/implant

## CN[C@H](CC(C)C)C(=O)N[C@H]1C(=O)N[C@@H](CC(N)=O)C(=O)N[C@H]2C(=O)N[C@H]3C(=O)N[C@H](C(=O)N[C@H](C(=O)O)c4cc(O)cc(O)c4-c4cc3ccc4O)[C@H](O)c3ccc(c(Cl)c3)Oc3cc2cc(c3O[C@@H]2O[C@H](CO)[C@@H](O)[C@H](O)[C@H]2O[C@H]2C[C@](C)(N)[C@H](O)[C@H](C)O2)Oc2ccc(cc2Cl)[C@H]1O [Vancomycin, Vancomycin hydrochloride, reference compound]
[2]
  CFU/Implant, *MRSA b: 4.0 × 10^6 CFU/implant
[3]
  CFU/Implant, *E. f.: 4.0 × 10^6 CFU/implant
[4]; Staphylococcus epidermidis, read-out: Antimicrobial Activity MIC, S. e. b
  MIC: 1.5 µM
[5]; Staphylococcus aureus, MRSA, read-out: Antimicrobial Activity MIC, MRSA b
  MIC: 1.1 µM
[6]; Pseudomonas aeruginosa, ATCC27853, read-out: Antimicrobial Activity MIC, P. a. 5482
  MIC: > 200 µM
[7]; Staphylococcus aureus, read-out: Antimicrobial Activity MIC, MRSA 6271
  MIC: 0.9 µM
[8]; Pseudomonas aeruginosa, read-out: Antimicrobial Activity MIC, P. a. a
  MIC: > 320 µM
[9]; Enterococcus faecalis, read-out: Antimicrobial Activity MIC, E. f. b
  MIC: 1.3 µM
[10]; Staphylococcus aureus, MRSA, read-out: Antimicrobial Activity MIC, MRSA a
  MIC: 1.1 µM

## CC[C@H](C)[C@H](NC(=O)[C@H](CCCCN)NC(=O)[C@H](CCCCN)NC(=O)[C@H](CC(C)C)NC(=O)[C@H](CC(C)C)NC(=O)[C@H](CCCCN)NC(=O)[C@H](CCSC)NC(=O)[C@H](Cc1c[nH]c2ccccc12)NC(=O)[C@H](CCCCN)NC(=O)CCN)C(=O)N[C@@H](CC(C)C)C(=O)N[C@@H](CCCCN)C(N)=O [XI] (H-[βAla]KWMKLLKKILK-NH2; N-terminus assumed)
[11]
  Antimicrobial Activity MIC, C. a.: 11.3 µM
[12]
  Haemolytic Activity LC50: 270 µM
[4]; [14]
  Antimicrobial Activity MIC, S. e. b: 2.8 µM
[5]; [14]
  Antimicrobial Activity MIC, MRSA b: 10.0 µM
[6]; Bioscreen C, at least three times in duplicates
  Antimicrobial Activity MIC, P. a. 5482: 2.8 µM
[7]; growth in 100-well microtiter plates, Bioscreen C, tested at least three times in duplicates
  Antimicrobial Activity MIC, MRSA 6271: 11.3 µM
[8]; [15]
  Antimicrobial Activity MIC, P. a. a: 7.0 µM
[9]; [14]
  Antimicrobial Activity MIC, E. f. b: 59.0 µM
[10]; [15]
  Antimicrobial Activity MIC, MRSA a: 5.7 µM
[13]
  Colony Forming Units (CFU)/Hole, P. a. 5482: 2.0 × 10^5 CFU/hole
